The record followed here is patent US10344034B2, “Pyrazolopyrimidone or Pyrrolotriazone derivatives, method of preparing same, and pharmaceutical applications thereof” (Shanghai Hengrui Pharmaceutical Co., Ltd., priority 2013, dated 2019).

The structures appear in SMILES notation.

Series [1] concerns the target human GnRHr (Homo sapiens (Human), UniProt P30968). In words: Human GnRHr (GnRH receptor) activity assay, Fluo-4 calcium signal in Human GnRHr/CHO stably transfected cell lines. The format is cell-based. The following applies: Human GnRHr/CHO cells, GnRH polypeptide stimulant. How it is done: Test Example 1. Human GnRHr (GnRH Receptor) Activity Assay of the Present Compounds.
In vitro GnRHr protein activity was tested by the following methods.
This assay was used to determine the inhibition effect of the present compound on the activity of human GnRHr protein expressed by Human GnRHr/CHO stably transfected cell lines.
A mammalian expression vector containing the human GnRHr gene was transferred into CHO cells by adding Lipofectamine® LTX reagent containing Plus™. Antibiotics were added the next day for screening to pick out the monoclonal cell lines.
(§1) The Human GnRHr/CHO stably transfected cell lines were inoculated in 96-well plates with an inoculation density of 25,000 cells/well. The culture medium was removed the next day, and loading buffer containing Fluo-4 dye was added to the plate (100 μL/well) and incubated for 30 minutes at 37° C. The plate was moved to room temperature and equilibrated for 10 minutes. Each compound was diluted with DMSO to seven concentration gradients of 100 μM, 10 μM, 1 μM, 0.1 μM, 0.01 μM, 0.001 μM, 0.0001 μM. Then, 1 μl of each gradient was added to each well and incubated for 10 minutes at room temperature. After automated addition of 50 μL of GnRH polypeptide stimulant solution, the value was immediately detected at 494/516 nM by a microplate reader (flexstation 3). IC50 values of the compounds were calculated by software from different fluorescence signals at various corresponding concentrations.
The inhibitory activity of the present compounds on human GnRHr was determined by the above assay, and IC50 values are shown in Table 1.

A short description of series [2]: Rat pharmacokinetics assay. The conditions noted are these: both sexes, Sprague-Dawley, plasma, oral 10 mg/kg; for Vd/F: read-out: Apparent volume of distribution Vz/F; for AUC: read-out: Area under curve AUC; for CL/F: read-out: Clearance rate CL/F; for half-life: read-out: Half-life T1/2 (converted); for Cmax: read-out: Plasma concentration Cmax; for MRT: read-out: Residence time MRT. In kind it is in vivo, Sprague-Dawley (SD) rats. Here is the method: Test Example 4. Rat pharmacokinetics assay of the compounds of Example 2, Example 3, Example 5, Example 9, Example 10, Example 11, and Example 13 of the present invention.
Sprague-Dawley (SD) rats were used as test animals. The plasma concentrations at various times were determined by LC/MS/MS after intragastric administration of compounds of Example 2, Example 3, Example 5, Example 9, Example 10, Example 11, and Example 13, and intravenous administration of the compound of Example 11 to the rats. The pharmacokinetic behavior of the present compounds in rats was studied, and the pharmacokinetic features were evaluated.
Thirty-two (32) healthy adult SD rats (half female and half male) were evenly designated into 8 groups (4 for each group). The animals were purchased from Shanghai Super B&K Laboratory Animal Corp. Ltd (laboratory animal production Certificate No. SCXK (HU)2008-0016).
An appropriate amount of sample was weighed, and added with 0.5% CMC-Na to form a 1 mg/ml suspension upon ultrasonic treatment.
Appropriate amounts of drugs were weighed, and dissolved with 0.5 ml DMSO and 0.5 ml of Tween 80. Saline solution was added to the final volume.
Thirty-two (32) SD rats (half female and half male) were evenly designated into 8 groups (4 for each group), and administered by oral gavage or intravenous injection (i.v.) (oral gavage at a dosage of 10 mg/kg or 30 mg/kg, and i.v. at a dosage of 5.0 mg/kg), respectively, at a volume of 10 ml/kg after fasting overnight.
0.1 ml of blood was sampled before, and 0.5, 1, 2, 4, 6, 8, 11, and 24 hours after administration, collected in a heparinized test tube, and centrifuged at 3500 rpm for 10 minutes to separate the plasma, which was stored at −20° C. The animals were allowed access to feed 2 hours after administration.
The content of the test compound in the plasma of rats after administration of the compound by oral gavage was determined by LC/MS/MS.

Series [3] addresses rabbit GnRHr (Oryctolagus cuniculus, UniProt Q5U7L3). Description: Rabbit GnRHr inhibitory activity assay, rabbit GnRHr/CHO stably transfected cell lines. The format is cell-based. The following applies: rabbit GnRHr/CHO cells, GnRH polypeptide stimulant, Fluo-4. Here is the method:
Test Example 3. Rabbit GnRHr Inhibitory Activity Assay of the Present Compounds
This assay was used to determine the inhibition effect of the present compounds on the activity of rabbit GnRHr protein expressed by rabbit GnRHr/CHO stably transfected cell lines.
A mammalian expression vector containing the rabbit GnRHr gene was transferred into CHO cells by adding Lipofectamine® LTX reagent containing Plus™. Antibiotics were added the next day for screening to pick out the monoclonal cell lines.
as §1, with “rabbit” for “Human”, “494/516n M” for “494/516 nM”
The inhibitory activity of the present compounds on rabbit GnRHr was determined by the above assay, and IC50 values are shown in Table 1.

Sequence of human GnRHr (P30968 whole entry): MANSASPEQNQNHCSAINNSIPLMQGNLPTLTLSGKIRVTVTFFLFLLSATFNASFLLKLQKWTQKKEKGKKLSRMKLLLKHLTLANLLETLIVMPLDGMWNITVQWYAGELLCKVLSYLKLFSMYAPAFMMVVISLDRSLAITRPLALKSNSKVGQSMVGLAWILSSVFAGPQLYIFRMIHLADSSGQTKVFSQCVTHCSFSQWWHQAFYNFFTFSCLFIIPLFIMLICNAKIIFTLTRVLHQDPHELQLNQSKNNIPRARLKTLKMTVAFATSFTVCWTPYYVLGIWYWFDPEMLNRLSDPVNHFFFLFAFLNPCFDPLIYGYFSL
Sequence of rabbit GnRHr (Q5U7L3 1-328): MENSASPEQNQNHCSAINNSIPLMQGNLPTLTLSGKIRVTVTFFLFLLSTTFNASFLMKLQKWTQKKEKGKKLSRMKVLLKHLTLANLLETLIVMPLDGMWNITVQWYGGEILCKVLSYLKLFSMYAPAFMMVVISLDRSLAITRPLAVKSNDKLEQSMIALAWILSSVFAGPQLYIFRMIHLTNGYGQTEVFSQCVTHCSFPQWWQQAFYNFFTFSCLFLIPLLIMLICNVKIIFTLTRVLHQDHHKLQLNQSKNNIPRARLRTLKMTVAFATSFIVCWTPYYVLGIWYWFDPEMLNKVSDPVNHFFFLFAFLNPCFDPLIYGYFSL

As for `CNC(=O)Nc1ccc(-c2cn3c(c2CN(C)C)c(=O)n(-c2cccc(OC)c2F)c(=O)n3Cc2c(F)cccc2F)cc1` [Example 14, 1-(4-(1-(2,6-difluorobenzyl)-5-((dimethylamino)methyl)-3-(2-fluoro-3-methoxyphenyl)-2,4-dioxo-1,2,3,4-tetrahydropyrrolo[2,1-f][1,2,4]triazin-6-yl)phenyl)-3-methylurea], the IC50 in series [1] came to 0.11 nM.
On to `CCNC(=O)Nc1ccc(-n2nc3c(c2CN(C)C)c(=O)n(-c2ccc(OC)nn2)c(=O)n3Cc2c(F)cccc2F)cc1` [Example 10, 1-(4-(7-(2,6-difluorobenzyl)-3-((dimethylamino)methyl)-5-(6-methoxypyridazin-3-yl)-4,6-dioxo-4,5,6,7-tetrahydro-2H-pyrazolo[3,4-d]pyrimidin-2-yl)phenyl)-3-ethylurea], for which the IC50 in series [1] is 0.66 nM. Further, in series [2], the Vd/F is 30.3 ± 14.4 L/kg, the AUC was determined as 1240 ± 593 ng·h/mL, the CL/F came out at 168 ± 95 mL/min/kg and the half-life is 2.29 ± 0.84 h. In series [2], the Cmax turned out to be 598 ± 431 ng/mL and the MRT amounted to 2.96 ± 0.17 h.
For the compound `CONC(=O)Nc1ccc(-c2cn3c(c2CN(C)C)c(=O)n(-c2cccc(OC)c2F)c(=O)n3Cc2c(F)cccc2F)cc1` [Example 15, 1-(4-(1-(2,6-difluorobenzyl)-5-((dimethylamino)methyl)-3-(2-fluoro-3-methoxyphenyl)-2,4-dioxo-1,2,3,4-tetrahydropyrrolo[2,1-f][1,2,4]triazin-6-yl)phenyl)-3-methoxyurea], in series [1], the IC50 is 0.43 nM.
The same measure, in the same setting: the same measure for `CNC(=O)Nc1ccc(-c2cn3c(c2CN(C)C)c(=O)n(-c2ccc(OC)nn2)c(=O)n3Cc2c(F)cccc2F)cc1` [Example 16, 1-(4-(1-(2,6-difluorobenzyl)-5-((dimethylamino)methyl)-3-(6-methoxypyridazin-3-yl)-2,4-dioxo-1,2,3,4-tetrahydropyrrolo[2,1-f][1,2,4]triazin-6-yl)phenyl)-3-methylurea]: 2.32 nM.
The same measure, in the same setting: next, `CONC(=O)Nc1ccc(-n2nc3c(c2CN(C)C)c(=O)n(-c2cccc(OC)c2F)c(=O)n3Cc2c(F)cccc2C(F)(F)F)cc1` [Example 7, 1-(4-(3-((dimethylamino)methyl)-5-(2-fluoro-3-methoxyphenyl)-7-(2-fluoro-6-(trifluoromethyl)benzyl)-4,6-dioxo-4,5,6,7-tetrahydro-2H-pyrazolo[3,4-d]pyrimidin-2-yl)phenyl)-3-methoxyurea]: 0.49 nM.
`CNC(=O)Nc1ccc(-n2nc3c(c2CN(C)C)c(=O)n(-c2cccc(OC)c2F)c(=O)n3Cc2c(F)cccc2C(F)(F)F)cc1` [Example 8, 1-(4-(3-((dimethylamino)methyl)-5-(2-fluoro-3-methoxyphenyl)-7-(2-fluoro-6-(trifluoromethyl)benzyl)-4,6-dioxo-4,5,6,7-tetrahydro-2H-pyrazolo[3,4-d]pyrimidin-2-yl)phenyl)-3-methylurea]: the IC50 in series [1] was 0.6 nM; in series [3], 0.27 nM.
Regarding `CONC(=O)Nc1ccc(-n2nc3c(c2CN(C)C)c(=O)n(-c2cccc(OC)c2F)c(=O)n3Cc2c(F)cccc2F)cc1` [Example 2, 1-(4-(7-(2,6-difluorobenzyl)-3-((dimethylamino)methyl)-5-(2-fluoro-3-methoxyphenyl)-4,6-dioxo-4,5,6,7-tetrahydro-2H-pyrazolo[3,4-d]pyrimidin-2-yl)phenyl)-3-methoxyurea], in series [1], the IC50 was 1.46 nM. For the same compound, in series [2], the Vd/F stood at 14.4 ± 10.5 L/kg, the AUC was found to be 1550 ± 650 ng·h/mL, the CL/F was determined as 121 ± 44 mL/min/kg and the half-life is 1.24 ± 0.54 h. In series [2], the Cmax is 746 ± 493 ng/mL and the MRT amounted to 2.02 ± 0.67 h.
In the case of `CCNC(=O)Nc1ccc(-n2nc3c(c2CN(C)C)c(=O)n(-c2cccc(OC)c2F)c(=O)n3Cc2c(F)cccc2F)cc1` [Example 3, 1-(4-(7-(2,6-difluorobenzyl)-3-((dimethylamino)methyl)-5-(2-fluoro-3-methoxyphenyl)-4,6-dioxo-4,5,6,7-tetrahydro-2H-pyrazolo[3,4-d]pyrimidin-2-yl)phenyl)-3-ethylurea], the IC50 in series [1] came out at 0.9 nM. For the same compound, in series [2], the Vd/F turned out to be 96.2 ± 42.2 L/kg, the AUC worked out at 1070 ± 472 ng·h/mL, the CL/F was 181 ± 79 mL/min/kg and the half-life was 6.17 ± 0.79 h. Further, in series [2], the Cmax came to 237 ± 158 ng/mL and the MRT was 6.42 ± 1.39 h.
For `CCNC(=O)Nc1ccc(-c2cn3c(c2CN(C)C)c(=O)n(-c2cccc(OC)c2F)c(=O)n3Cc2c(F)cccc2F)cc1` [Example 13, 1-(4-(1-(2,6-difluorobenzyl)-5-((dimethylamino)methyl)-3-(2-fluoro-3-methoxyphenyl)-2,4-dioxo-1,2,3,4-tetrahydropyrrolo[2,1-f][1,2,4]triazin-6-yl)phenyl)-3-ethylurea], in series [1], the IC50 worked out at 0.92 nM. Besides, in series [2], the Vd/F came to 231 ± 234 L/kg, the AUC worked out at 389 ± 298 ng·h/mL, the CL/F stood at 915 ± 1050 mL/min/kg and the half-life is 3.31 ± 0.57 h. In addition, in series [2], the Cmax was found to be 103 ± 64 ng/mL and the MRT is 4.48 ± 0.7 h.
Regarding `CNC(=O)Nc1ccc(-n2nc3c(c2CN(C)C)c(=O)n(-c2cccc(OC)c2F)c(=O)n3Cc2c(F)cccc2F)cc1` [Example 5, 1-(4-(7-(2,6-difluorobenzyl)-3-((dimethylamino)methyl)-5-(2-fluoro-3-methoxyphenyl)-4,6-dioxo-4,5,6,7-tetrahydro-2H-pyrazolo[3,4-d]pyrimidin-2-yl)phenyl)-3-methylurea], the IC50 in series [1] worked out at 0.66 nM. In series [2], the Vd/F amounted to 46.8 ± 39.2 L/kg, the AUC amounted to 1290 ± 1030 ng·h/mL, the CL/F was found to be 247 ± 198 mL/min/kg and the half-life is 2.32 ± 0.65 h. Besides, in series [2], the Cmax stood at 690 ± 660 ng/mL and the MRT is 2.47 ± 0.75 h.
In the case of `CNC(=O)Nc1ccc(-n2nc3c(c2CN(C)C)c(=O)n(-c2ccc(OC)nn2)c(=O)n3Cc2c(F)cccc2C(F)(F)F)cc1` [Example 12, 1-(4-(3-((dimethylamino)methyl)-7-(2-fluoro-6-(trifluoromethyl)benzyl)-5-(6-methoxypyridazin-3-yl)-4,6-dioxo-4,5,6,7-tetrahydro-2H-pyrazolo[3,4-d]pyrimidin-2-yl)phenyl)-3-methylurea], in series [1], the IC50 worked out at 2.24 nM.
Same read-out and setting: the same measure for `CCNC(=O)Nc1ccc(-n2nc3c(c2CN(C)C)c(=O)n(-c2cccc(OC)c2F)c(=O)n3Cc2c(F)cccc2C(F)(F)F)cc1` [Example 6, 1-(4-(3-((dimethylamino)methyl)-5-(2-fluoro-3-methoxyphenyl)-7-(2-fluoro-6-(trifluoromethyl)benzyl)-4,6-dioxo-4,5,6,7-tetrahydro-2H-pyrazolo[3,4-d]pyrimidin-2-yl)phenyl)-3-ethylurea]: 0.96 nM.
